Experimental data published in patent US20200085047A1, “Use of an Acyclic Picolinamide Compound as a Fungicide for Control of Phytopathogenic Fungi in Vegetables” (Dow AgroSciences LLC, priority 2017, published 2020).

Columns and labels:
Type in all cases: in vivo
Alternaria solani = assay: Field assessment of Alternaria solani (ALTESO) on tomato, trial 1 (inoculated); settings: for Percent disease control on tomato fruits (AUDPC), Trial 1, 5% EC: 5% EC + Agnique BP420, fruits; for Percent disease control on tomato leaves (AUDPC), Trial 1, 5% EC: 5% EC + Agnique BP420, leaves; for Percent disease control on tomato fruits (AUDPC), Trial 1, 10% SC: 10% SC + Agnique BP420, fruits; for Percent disease control on tomato leaves (AUDPC), Trial 1, 10% SC: 10% SC + Agnique BP420, leaves
Procedure: Field Assessment of Alternaria solani (ALTESO) on Tomato:
Assessment of compound I of ALTESO on tomato was performed in two separate field trials. In the first trial, a fungicidal treatment containing Compound I, applied in both a 5% EC and 10% SC formulation and tank mixed with an adjuvant (Agnique BP420, 50% w/w at 0.3% v/v), was sprayed on tomato plants (LYPES) at approximately 60-70 cm in height at rates of 100 and 200 grams of active ingredient per hectare (g ai/ha). The trial was based on five foliar applications at 7 day intervals with inoculation with the early blight pathogen 2 days after the first application. The treatment was part of an experimental trial designed as a randomized complete block with four replications and a plot of approximately 1.5×4 m. Compound I was applied at water volume of 1000 L/ha with an AZO backpack sprayer using compressed air.
Disease severity was recorded as percent diseased area on a random selection of 20 leaves and 20 fruits per plot. Percent control was assessed with 6 evaluations made between 0-35 days after the first application, DAA1. Area under the disease progress curve (AUDPC) was calculated for each plot using the sets of recorded severity data. Relative AUDPC (% control based on AUDPC) was calculated as percent of the nontreated control.

Corynespora cassiicola = assay: Field assessment of Corynespora cassiicola (CORYCA) in tomato; settings: SC
From the text: Field Assessment of Corynespora cassiicola (CORYCA) in Tomato:
A fungicidal treatment containing Compound I, applied in an SC formulation (MSO built-in) and tank mixed with an adjuvant (Agnique BP-420, 50% w/w at 0.2% v/v or Adsee C80W 80%), was sprayed on tomato plants (LYPES, Charger variety) at growth stage BBCH64 (4th flower open) at rates of 50, 75, 100, and 150 grams of active ingredient per hectare (g ai/ha). The experimental plots were inoculated with the target spot pathogen one day after initial application. The treatment was part of an experimental trial designed as a randomized complete block (RCB) with four replications and a plot of approximately 6×25 feet (ft). Compound I was applied at water volume of 100 gallons per acre (gal/acre), using a tractor sprayer (SCDISC D1 Nozzles) and pressurized at 200 psi.
Disease severity (percentage of visual diseased foliage (leaf) on whole plot) was assessed four times during the trial (1-20 days after application, DAA). Area under the disease progress curve (AUDPC) was calculated for each plot using the sets of recorded severity data. Relative AUDPC (% control based on AUDPC) was calculated as percent of the untreated control.

Mycovellosiella fulva = assay: Field assessment of Mycovellosiella fulva (FULVFU) on tomato, curative; settings: 10% SC; for Percent control based on AUDPC, FULVFU, adjuvant II: Agnique BP420 (50% w/w at 0.3% v/v); for Percent control based on AUDPC, FULVFU, adjuvant I: no adjuvant
From the text: Field assessment of Mycovellosiella fulva (FULVFU) on tomato:
A 10% SC formulation of compound I was tanked mixed with four different adjuvants: Agnique BP420 (50% w/w at 0.3% v/v); Trycol (50% w/w at 0.1% v/v); Ethomeen T18H (50% w/w at 0.2% v/v); and Phase II (50% w/w at 0.2% v/v). A fungicidal treatment containing formulations of compound I, either alone or with adjuvants, was sprayed on tomato plants four times, the first application approximately 3 months after planting, with the following three applications in 7-10 day intervals. Formulations of compound I were applied at rates of 50, 100, 150 and 200 grams of active ingredient per hectare (g ai/ha). The experimental plots were inoculated with the leaf mold pathogen 7 days before the first application (curative). The treatment was part of an experimental trial designed as a randomized complete block with four replications and a plot of approximately 2.5×1.4 m. Formulations of compound I were applied at water volume of 675 L/ha.
Disease severity was recorded as a percentage of visual diseased foliage (6 random plants per plot). Tomato leaf mold infection was assessed five times at 7 days after the first application (7 DAAA), 7 DAAB, 5 DAAC, followed by 7 and 12 DAAD. Area under the disease progress curve (AUDPC) was calculated for each plot using the sets of recorded severity data. Relative AUDPC (% control based on AUDPC) was calculated as percent of the nontreated control.

Colletotrichum capsici = assay: Field assessment of Colletotrichum capsici (COLLCA) on hot peppers, 2 day protectant; settings: 5% EC + Trycol, hot pepper
Procedure: Field Assessment of Colletotrichum capsici (COLLCA) on Hot Peppers:
Assessment of compound I of COLLCA on hot peppers, in both protectant and curative fashion, was performed in two separate field trials. For the 2 day protectant test, a fungicidal treatment containing a 5% EC formulation of compound I plus an adjuvant (Trycol, 50% w/w at 0.2% v/v), was sprayed on hot pepper plants (CPSAN) three times, the first application at the flowering and fruiting stage 43 days after planting, with the following applications in 7 day intervals. Formulations of compound I were applied at rates of 50, 100, and 150 grams of active ingredient per hectare (g ai/ha). The experimental plots were inoculated with the anthracnose pathogen 2 days after the first application. The treatment was part of an experimental trial designed as a randomized complete block with four replications and a plot of approximately 2×1 m, with formulations of compound I being applied at water volume of 1000 L/ha.
Disease severity was assessed as the percent fruit area diseased per plant (6 plants per plot randomly). Anthracnose infection was assessed four times, 7 days after application A (DAAA), 7 DAAB, plus 7 and 14 DAAC. Area under the disease progress curve (AUDPC) was calculated for each plot using the sets of recorded visual infection data. Relative AUDPC (% control based on AUDPC) was calculated as percent of the nontreated control.

## COc1ccnc(C(=O)N[C@@H](C)C(=O)O[C@@H](C)C(c2ccc(F)cc2)c2ccc(F)cc2)c1OC(C)=O [Compound I, (S)-1,1-bis(4-fluorophenyl)propan-2-yl (3-acetoxy-4-methoxypicolinoyl)-L-alaninate]
Alternaria solani; 100 g ai/ha
  Percent disease control on tomato fruits (AUDPC), Trial 1, 5% EC: A (76-100)
  Percent disease control on tomato leaves (AUDPC), Trial 1, 5% EC: A (76-100)
  Percent disease control on tomato fruits (AUDPC), Trial 1, 10% SC: A (76-100)
  Percent disease control on tomato leaves (AUDPC), Trial 1, 10% SC: A (76-100)
Alternaria solani; 200 g ai/ha
  Percent disease control on tomato fruits (AUDPC), Trial 1, 5% EC: A (76-100)
  Percent disease control on tomato leaves (AUDPC), Trial 1, 5% EC: A (76-100)
  Percent disease control on tomato fruits (AUDPC), Trial 1, 10% SC: A (76-100)
  Percent disease control on tomato leaves (AUDPC), Trial 1, 10% SC: A (76-100)
Corynespora cassiicola; Compound I 50 g/ha, Agnique BP420, 200 mL/ha
  Percent Control of CORYCA (AUDPC): 53.1%
Corynespora cassiicola; Compound I 50 g/ha, MSO, 100 g/ha
  Percent Control of CORYCA (AUDPC): 55.2%
Corynespora cassiicola; Compound I 75 g/ha, Agnique BP420, 300 mL/ha
  Percent Control of CORYCA (AUDPC): 56.9%
Corynespora cassiicola; Compound I 75 g/ha, MSO, 150 g/ha
  Percent Control of CORYCA (AUDPC): 56.1%
Corynespora cassiicola; Compound I 100 g/ha, Adsee C80W 80%, 250 g/ha
  Percent Control of CORYCA (AUDPC): 61.4%
Corynespora cassiicola; Compound I 100 g/ha, Agnique BP420, 400 mL/ha
  Percent Control of CORYCA (AUDPC): 74.1%
Corynespora cassiicola; Compound I 100 g/ha, MSO, 200 g/ha
  Percent Control of CORYCA (AUDPC): 71.6%
Corynespora cassiicola; Compound I 150 g/ha, Agnique BP420, 600 mL/ha
  Percent Control of CORYCA (AUDPC): 83.9%
Corynespora cassiicola; Compound I 150 g/ha, MSO, 300 g/ha
  Percent Control of CORYCA (AUDPC): 84.0%
Mycovellosiella fulva; 50 g ai/ha
  Percent control based on AUDPC, FULVFU, adjuvant II: A (76-100)
  Percent control based on AUDPC, FULVFU, adjuvant I: C (26-50)
Mycovellosiella fulva; 100 g ai/ha
  Percent control based on AUDPC, FULVFU, adjuvant II: A (76-100)
  Percent control based on AUDPC, FULVFU, adjuvant I: C (26-50)
Mycovellosiella fulva; 100 g ai/ha, Ethomeen T18H (50% w/w at 0.2% v/v)
  Percent control based on AUDPC, FULVFU, adjuvant IV: B (51-75)
Mycovellosiella fulva; 100 g ai/ha, Phase II (50% w/w at 0.2% v/v)
  Percent control based on AUDPC, FULVFU, adjuvant V: A (76-100)
Mycovellosiella fulva; 100 g ai/ha, Trycol (50% w/w at 0.1% v/v)
  Percent control based on AUDPC, FULVFU, adjuvant III: A (76-100)
Mycovellosiella fulva; 150 g ai/ha
  Percent control based on AUDPC, FULVFU, adjuvant II: A (76-100)
Mycovellosiella fulva; 200 g ai/ha
  Percent control based on AUDPC, FULVFU, adjuvant II: A (76-100)
Colletotrichum capsici; 50 g ai/ha
  Percent control based on AUDPC, COLLCA 2 DP: A (76-100)
Colletotrichum capsici; 100 g ai/ha
  Percent control based on AUDPC, COLLCA 2 DP: A (76-100)
Colletotrichum capsici; 150 g ai/ha
  Percent control based on AUDPC, COLLCA 2 DP: A (76-100)
